# Measurements reported in patent US20170190671A1, “BIS(ARYL)CATECHOL DERIVATIVES AS HERBICIDES” (E I DU PONT DE NEMOURS AND COMPANY, priority 2014, published 2017).
# Assays:
# Assay in all cases: Test C postemergence
# Assay type in all cases: in vivo
# Conditions in all cases: scale 0 to 100
# [1] = test system: large (Lg) crabgrass (Digitaria sanguinalis)
# Description: (§1) Seeds of plant species selected from blackgrass (Alopecurus myosuroides), Italian ryegrass (Lolium multiflorum), winter wheat (Triticum aestivum), galium (catchweed bedstraw, Galium aparine), corn (Zea mays), large (Lg) crabgrass (Digitaria sanguinalis), giant foxtail (Setaria faberii), johnsongrass (Sorghum halepense), lambsquarters (Chenopodium album), morningglory (Ipomoea coccinea), yellow nutsedge (Cyperus esculentus), pigweed (Amaranthus retroflexus), ragweed (common ragweed, Ambrosia elatior), soybean (Glycine max), barnyardgrass (Echinochloa crus-galli), oilseed rape (Brassica napus), waterhemp (common waterhemp, Amaranthus rudis), and velvetleaf (Abutilon theophrasti) were planted into a blend of loam soil and sand and treated preemergence with test chemicals formulated in a non-phytotoxic solvent mixture which included a surfactant.
# (§2) At the same time, plants selected from these crop and weed species and also chickweed (common chickweed, Stellaria media), kochia (Kochia scoparia), and wild oat (Avena fatua), were planted in pots containing Redi-Earth® planting medium (Scotts Company, 14111 Scottslawn Road, Marysville, Ohio 43041) comprising spaghnum peat moss, vermiculite, wetting agent and starter nutrients and treated with postemergence applications of test chemicals formulated in the same manner. Plants ranged in height from 2 to 18 cm (1- to 4-leaf stage) for postemergence treatments. Treated plants and controls were maintained in a greenhouse for 13 to 15 days, after which time all species were compared to controls and visually evaluated. Plant response ratings, summarized in Table C, are based on a scale of 0 to 100 where 0 is no effect and 100 is complete control. A dash (-) response means no test result.
# [2] = test system: velvetleaf (Abutilon theophrasti)
# Description: as §1, §2
# [3] = test system: winter wheat (Triticum aestivum)
# Description: as §1, §2
# [4] = test system: morningglory (Ipomoea coccinea)
# Description: as §1, §2
# [5] = test system: galium (catchweed bedstraw, Galium aparine)
# Description: as §1, §2
# kochia (Kochia scoparia) = test system: kochia (Kochia scoparia)
# Description: as §1, §2
smiles,measurement,setting,value
Fc1ccc(F)c(Oc2ncc(C(F)(F)F)cn2)c1Oc1ncc(Cl)cn1 [Compound 25],"Plant response rating, Crabgrass, Large","[1]; 8 g ai/ha, postemergence",0
same,"Plant response rating, Crabgrass, Large","[1]; Postemergence, 16 g ai/ha",0
same,"Plant response rating, Crabgrass, Large","[1]; Postemergence, 31 g ai/ha",0
same,"Plant response rating, Crabgrass, Large","[1]; Postemergence, 62 g ai/ha",5
same,"Plant response rating, Velvetleaf","[2]; 8 g ai/ha, postemergence",30
same,"Plant response rating, Velvetleaf","[2]; Postemergence, 31 g ai/ha",60
same,"Plant response rating, Velvetleaf","[2]; Postemergence, 62 g ai/ha",30
same,"Plant response rating, Wheat","[3]; 8 g ai/ha, postemergence",0
same,"Plant response rating, Wheat","[3]; Postemergence, 31 g ai/ha",0
same,"Plant response rating, Wheat","[3]; Postemergence, 62 g ai/ha",0
same,"Plant response rating, Morningglory","[4]; 8 g ai/ha, postemergence",20
same,"Plant response rating, Morningglory","[4]; Postemergence, 31 g ai/ha",10
same,"Plant response rating, Morningglory","[4]; Postemergence, 62 g ai/ha",15
same,"Plant response rating, Galium","[5]; 8 g ai/ha, postemergence",50
same,"Plant response rating, Galium","[5]; Postemergence, 16 g ai/ha",55
same,"Plant response rating, Galium","[5]; Postemergence, 31 g ai/ha",80
same,"Plant response rating, Galium","[5]; Postemergence, 62 g ai/ha",80
same,"Plant response rating, Kochia","kochia (Kochia scoparia); 8 g ai/ha, postemergence",0
same,"Plant response rating, Kochia","kochia (Kochia scoparia); Postemergence, 16 g ai/ha",50
same,"Plant response rating, Kochia","kochia (Kochia scoparia); Postemergence, 31 g ai/ha",60
same,"Plant response rating, Kochia","kochia (Kochia scoparia); Postemergence, 62 g ai/ha",75
